We go through seven molecules from ChEMBL document CHEMBL3868638, “Potential Treatment of Cognitive Impairment in Schizophrenia by Phosphodiesterase 2 (PDE2) Inhibitors” (ACS Med Chem Lett, 2017).

Structures are written as SMILES. Activity calls are given as the source filed them. The calls are words filed in the database; no cut-off is given here.

The Ki is a measure of affinity in units of concentration, obtained from inhibition or displacement.

Assay [1] is described as follows: (§1) Inhibition of human PDE2 using FAM-labeled cAMP as substrate after 60 mins in presence of cGMP by florescence polarization assay.
The species entered for assay [2] is Homo sapiens. The assay is described as §1.

As for `CN(C)c1nc(C(=O)N[C@@H](c2ccc(OC(F)(F)F)c(F)c2)C(C)(C)O)cc(=O)[nH]1`, the inhibitory constant (Ki) in assay [1] came to 0.12 nM.

In the case of `C[C@@H](NC(=O)c1cc(=O)[nH]c(N(C)C)n1)c1ccc(SC(F)(F)F)cc1`, the Ki in assay [1] was in the range of 0.32 to 0.82 nM.

For `CC(C)[C@@H](NC(=O)c1cc(=O)[nH]c(N(C)C)n1)c1ccc(SC(F)(F)F)cc1`, the inhibition constant Ki in assay [1] was 0.37 to 5.1 nM.

Turning to `CC[C@@H](NC(=O)c1cc(=O)[nH]c(N(C)C)n1)c1ccc(SC(F)(F)F)cc1`, in assay [1], the Ki lay within 0.69 to 5.05 nM.

Regarding `C[C@@H](NC(=O)c1cc(=O)[nH]c(N(C)C)n1)c1ccc(OC(F)(F)F)c(Cl)c1`, the inhibitory constant (Ki) in assay [1] was found to be 1.6 nM.

`CN(C)c1nc(C(=O)NC2(c3ccc(C(F)(F)F)c(F)c3)CC2)cc(=O)[nH]1`: the Ki in assay [1] lay within 0.9 to 0.96 nM.

For `COc1ccc(Cc2nc(O)c3c(C)nc([C@@H](CCCc4ccccc4)[C@@H](C)O)n3n2)cc1OC`, in assay [2], the inhibition entry was “Active”.
